In US9359311B2, “Substituted aromatic oligomers” (NEUROSCIOS GMBH, priority 2011, dated 2016):
Entries after “also recorded” stand apart in the source; their conditions may differ.

Experiments:
biotinylated Aβ1-42 = biological target: T1, biotinylated Aβ1-42 (Homo sapiens, UniProt P05067); experiment: Inhibition of Abeta oligomerisation (biotinylated Aβ1-42, neutravidin plate, streptavidin-HRP); type: biochemical; details: inhibition of Aβ1-42 aggregation, approximately 12 nM Aβ1-42, PBS pH 7.4, 2% DMSO, 30 min RT
T1 construct: To assure monomerisation of biotinylated Aβ1-42 (Anaspec #23523-0.5) the peptide was thoroughly monomerised; purchased Anaspec 23523-0.5

[1] = biological target: T2, Human Aβ38, Aβ40 and Aβ42 (Homo sapiens, UniProt P05067); experiment: Human Aβ38, Aβ40 and Aβ42 in SDS brain homogenate fraction of hAPPSL Tg mice after 90 days treatment; type: in vivo, mouse; details: twice daily i.p., p-FTAA 1 or 10 mg/kg/day, P9707_003 10 mg/kg/day
T2 construct: from tissue; host or cells: CSF and left brain hemisphere (SDS fraction) of transgenic hAPPSL mice
Procedure: (§1) Vehicle: Phosphate Buffered Saline (PBS; 6.7 mM PO4, 155 mM NaCl, pH=7.3-7.5) (BioWhittaker PBS from Lonza).
(§2) Test item (T.I.): p-FTAA and P9707_003 diluted in vehicle from stock solution in deionized water (10 mg/ml).
(§3) Tg hAPPSL: Transgenic hAPPSL mice over-expressing hAPP(751) under the control of the murine Thy-1 promoter with a C57BL/6xDBA background.
(§4) Human Aβ38, Aβ40 and Aβ42 were determined in homogenates of the left brain hemispheres and in CSF samples of all Tg animals by an immunosorbent assay from Mesoscale Discovery
48 hAPP Tg mice plus 4 reserves allocated to 4 different treatment groups were treated with either vehicle only (control), p-FTAA or P9707_003. As an additional control, 12 nTg littermates of the hAPPSL mice (plus 1 reserve) were treated with vehicle only. Starting at 6.5 months of age, female hAPPSL mice were treated with vehicle only, p-FTAA (dosage: 1 or 10 mg/kg/day) or P9707_003 (dosage: 10 mg/kg/day) for 90 days. […]
(§5) In the brain homogenate SDS fraction and in CSF of each Tg mouse, human Aβ38, Aβ40 and Aβ42 levels were measured with a Aβ-kit from Mesoscale Discovery. Aβ levels were evaluated in comparison to a peptide standard as pg/mg brain (wet weight) or pg/ml CSF.
Descriptive statistical analysis was performed on all evaluated parameters. […] Group differences between all Tg groups were calculated by a parametric ANOVA followed by a Bonferroni post test.

[2] = tested on: PHF-tau doubly-phosphorylated at Thr231 and Ser235; experiment: Phosphorylation of Tau in neurites crossing amyloid plaques, AT180 IHC, hAPPSL Tg mice; type: in vivo, mouse
Procedure: as §1
Test Item (T.I.): p-FTAA and P9707_003, diluted in vehicle from stock solution in deionized water (10 mg/ml).
as §3
(§6) 48 hAPP Tg mice plus 4 reserves allocated to 4 different treatment groups were treated with either vehicle only (control), p-FTAA or P9707_003. As an additional control, 12 nTg littermates of the hAPPSL mice (plus 1 reserve) were treated with vehicle only. Starting at 6.5 months of age, female hAPPSL mice were treated with vehicle only, p-FTAA (dosage: 1 or 10 mg/kg/day) or P9707_003 (dosage: 10 mg/kg/day) for 90 days. The Test Items (T.I.s) were administered in Vehicle. Compound and vehicle were administered twice daily i.p. for 90 days. Tg hAPPSL mice with a C57BL/6xDBA background and corresponding nTg littermates at an age of 6.5 months (+2 weeks) were randomly assigned to the treatment groups.
Histological evaluations were performed with six randomly chosen cryo-frozen brain hemispheres of treatment groups PBS Control, p-FTAA 1 mg/kg/day, p-FTAA 10 mg/kg/day, and P9707_003 10 mg/kg/day.
15 cryo-sections per level (altogether 5 levels), each 10 μm thick (Leica CM 3050S) were sagittally cut. Brain levels were chosen according to the morphology atlas “The Mouse Brain” from Paxinos and Franklin (2nd edition). The cutting of the five levels started with a random slice, then sampling was continued uniformly and systematically, always retaining 15 slices per level in series and discarding 100 μm in between the levels.
TAU phosphorylation was visualized immunohistochemically using the AT180 antibody. Clone AT180 recognizes PHF-tau doubly-phosphorylated at Thr231 and Ser235.
For determination of amyloid depositions 5 slices (1 from each level) per brain were stained and screened. From each slice five images were captured from 5 defined areas in the brain. The order of these positions reflect the time course of plaque deposition in the APPsl model, which starts in the frontal cortex (P11) at the age of 3 months and then spreads to the medial (P12) and dorsal cortex over age. At six months of age, plaques can be found in the medial cortex (P13), from then plaque load spreads into the hippocampal formation with hot spots in the subiculum (P14) and the dentate gyrus (P15) at the age of nine months.
Mosaic images for plaque load quantification including the whole cortex and hippocampus were recorded on a Zeiss AxioImager.Z1 microscope using high aperture lenses and an AxioVision 4.8 software driven AxioCam MRm (10× lens, 1× optocoupler). Plaques for AT180 quantifcation were imaged with a 20× lens. Detail images for qualitative figures are 40× image stacks collapsed to 2D by the extended depth of field function of AxioVision software.
Descriptive statistical analysis was performed on all evaluated parameters, Kolmogorov Smirnov test were performed to test normal distribution of data. Data in graphs are represented as mean±SEM.

[3] = biological target: T2, Human Aβ38, Aβ40 and Aβ42; experiment: Human Aβ38, Aβ40 and Aβ42 in CSF of hAPPSL Tg mice after 90 days treatment (immunosorbent assay); type: in vivo, mouse; details: twice daily i.p., hAPPSL Tg mice, p-FTAA 1 or 10 mg/kg/day, P9707_003 10 mg/kg/day
Procedure: as §1, §2, §3, §4
as §6, with “(±2” for “(+2”
as §5
Descriptive statistical analysis was performed on all evaluated parameters. All data were represented as mean±standard error of mean (SEM). Grubb's test was used to detect outliers. Normality distribution of the values was tested with Kolmogorov Smirnov normality distribution test. Group differences between all Tg groups were calculated by a parametric ANOVA followed by a Bonferroni post test.

prion = details: Ref: JBC doi: 10.1074/jbc.M112.355958; cited from earlier work
primary chicken neurons = experiment: Inhibition of Abeta 1-42 toxicity on primary chicken neurons (MTT); type: cell-based; parameters: key: No: no effect; +: minor positive effect on cell viability in the presence of aggregated Aβ 1-42; ++: medium positive effect on cell viability in the presence of aggregated Aβ 1-42; +++: strong positive effect on cell viability in the presence of aggregated Aβ 1-42; details: 10 μM Aβ1-42 aggregated together with compound for 48 h
Procedure: One-day-old fertilized eggs are stored under appropriate conditions until start of breeding. On embryonic day 0 eggs are transferred to the breeding incubator and under turning, kept at 37.8° C. and 55% humidity until embryonic day eight. Neurons are prepared as follows: In short, embryos are transferred to a plastic dish, and decapitated. Both brain hemispheres are removed, collected and any loose tissue removed. Hemispheres are mechanically dissociated and 4.8×10^4 cells per well (96-well plates) are seeded in a volume of 160 μl.
Aβ1-42 (MW 4514.1) was obtained from American Peptide Company as a lyophilized powder. A stock solution of 340 μM Aβ1-42 was prepared in 50 mM Tris-Buffer, 150 mM NaCl, pH7.6 according to the manufacturer's instructions. After sonication, the stock solution is diluted 1:1 with the test compounds to obtain a concentration of 170, 17 and 1.7 μM. After aggregation at 4° C. for 48 h, the solutions are sonicated again prior to application to the cells. The final concentration of Aβ1-42 applied to the primary chicken neurons is 10 μM.
Aβ1-42 aggregated together with compound for 48 hrs was applied to chicken neurons at DIV4 (days in vitro) and analyzed at DIV10 (144 hrs) and all others were applied to chicken neurons at DIV6 and analysed at DIV10 (96 hrs).
Viability of cultures is determined by the MTT assay. The MTT assay allows for the measurement of the mitochondrial dehydrogenase activity which reduces yellow MTT to dark blue formazan crystals. Since this reaction is catalyzed in living cells only this assay is used for the determination of cell viability. MTT solution is added to each well in a final concentration of 0.5 mg/ml. After 2 hours the MTT containing medium is aspired. Cells are lysed in 3% SDS and the formazan crystals are dissolved in isopropanol/HCl. Optical density is measured with a plate-reader at wavelength 570 nm. Cell survival rate is expressed as a percentage of optical density (OD) relative to control cells not treated with Aβ or compound.

T2 sequence (P05067 672-713 limits assumed): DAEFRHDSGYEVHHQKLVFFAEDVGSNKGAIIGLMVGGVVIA
T1 sequence (P05067 672-713 limits assumed): as above

O=C(O)Cc1cc(-c2ccc(C(=O)O)s2)sc1-c1ccc(-c2sc(-c3ccc(C(=O)O)s3)cc2CC(=O)O)s1 [p-FTAA, reference compound]
IC50 (biotinylated Aβ1-42): 5.01 µM
aggregated Aβ38, Aβ40 and Aβ42 in SDS fraction of brain homogenate [1]: significant SDS soluble Aβ lowering effect; also recorded: reduced
AT180 load ([2]; 1 mg p-FTAA treatment, position 4): significantly reduced
AT180 load ([2]; 10 mg p-FTAA treatment, positions 4 and 5): highly significant reduction
AT180 IR in plaques of younger history of origin (hippocampal formation, subiculum, dentate gyrus) ([2]; 90 days i.p., hAPPSL Tg mice): drastically reduced
CSF Aβ levels [3]: reduced
anti-prion potential (prion): pronounced anti-prion potential

O=C(O)Cc1cc(-c2cccs2)sc1-c1ccc(-c2sc(-c3cccs3)cc2CC(=O)O)s1 [p-HTAA, reference compound]
pIC50 (biotinylated Aβ1-42): 5.7
anti-prion potential (prion): pronounced anti-prion potential

O=C(O)Cc1ccsc1-c1ccc(-c2sc(-c3ccc(-c4cc(CC(=O)O)c(-c5ccc(-c6sccc6CC(=O)O)s5)s4)cc3)cc2CC(=O)O)s1 [Example 33, 2-(2-{5-[3-(Carboxymethyl)-5-{4-[4-(carboxymethyl)-5-{5-[3-(carboxymethyl)thiophen-2-yl]thiophen-2-yl}thiophen-2-yl]phenyl}thiophen-2-yl]thiophen-2-yl}thiophen-3-yl)acetic acid]
IC50 (biotinylated Aβ1-42): 0.794 µM
Rescue of Abeta toxicity (MTT) (primary chicken neurons; Conc. 0.1 μM): no
Rescue of Abeta toxicity (MTT) (primary chicken neurons; Conc. 1 μM): ++
Rescue of Abeta toxicity (MTT) (primary chicken neurons; Conc. 10 μM): no

O=C(O)Cc1ccsc1-c1ccc(-c2sc(-c3cccc(-c4cc(CC(=O)O)c(-c5ccc(-c6sccc6CC(=O)O)cc5)s4)c3)cc2CC(=O)O)cc1 [Example 39, 2-(5-{3-[4-(Carboxymethyl)-5-{4-[3-(carboxymethyl)thiophen-2-yl]phenyl}thiophen-2-yl]phenyl}-2-{4-[3-(carboxymethyl)thiophen-2-yl]phenyl}thiophen-3-yl)acetic acid]
IC50 (biotinylated Aβ1-42): 0.794 µM
Rescue of Abeta toxicity (MTT) (primary chicken neurons; Conc. 0.1 μM): +
Rescue of Abeta toxicity (MTT) (primary chicken neurons; Conc. 1 μM): +
Rescue of Abeta toxicity (MTT) (primary chicken neurons; Conc. 10 μM): no

O=C(O)Cc1ccsc1-c1ccc(-c2sc(-c3cc(CC(=O)O)c(-c4ccc(-c5sccc5CC(=O)O)s4)s3)cc2CC(=O)O)s1 [Example 17, 2-(2-{5-[3-(Carboxymethyl)-5-[4-(carboxymethyl)-5-{5-[3-(carboxymethyl)thiophen-2-yl]thiophen-2-yl}thiophen-2-yl]thiophen-2-yl]thiophen-2-yl}thiophen-3-yl)acetic acid]
IC50 (biotinylated Aβ1-42): 5.01 µM
Rescue of Abeta toxicity (MTT) (primary chicken neurons; Conc. 0.1 μM): +
Rescue of Abeta toxicity (MTT) (primary chicken neurons; Conc. 1 μM): no
Rescue of Abeta toxicity (MTT) (primary chicken neurons; Conc. 10 μM): +++

CS(=O)(=O)c1ccc(-c2ccc(-c3sc(-c4cc(CC(=O)O)c(-c5ccc(-c6ccc(S(C)(=O)=O)cc6)s5)s4)cc3CC(=O)O)s2)cc1 [Example 50, 2-{5-[4-(Carboxymethyl)-5-[5-(4-methanesulfonylphenyl)thiophen-2-yl]thiophen-2-yl]-2-[5-(4-methanesulfonylphenyl)thiophen-2-yl]thiophen-3-yl}acetic acid]
IC50 (biotinylated Aβ1-42): 2.51 µM
Rescue of Abeta toxicity (MTT) (primary chicken neurons; Conc. 0.1 μM): no
Rescue of Abeta toxicity (MTT) (primary chicken neurons; Conc. 1 μM): +++
Rescue of Abeta toxicity (MTT) (primary chicken neurons; Conc. 10 μM): +++

O=C(O)Cc1cc(-c2ccc(C(=O)O)cc2)sc1-c1ccc(-c2sc(-c3ccc(C(=O)O)cc3)cc2CC(=O)O)s1 [Example 9, 4-[4-(Carboxymethyl)-5-{5-[3-(carboxymethyl)-5-(4-carboxyphenyl)thiophen-2-yl]thiophen-2-yl}thiophen-2-yl]benzoic acid]
IC50 (biotinylated Aβ1-42): 15.8 µM
Rescue of Abeta toxicity (MTT) (primary chicken neurons; Conc. 1 μM): ++
Rescue of Abeta toxicity (MTT) (primary chicken neurons; Conc. 10 μM): +++
